Data taken from PubChem BioAssay AID328 (DTP/NCI, 2004).
Several values for one entry are separate records, joined by “and”; a condition that tells them apart may be missing. Identical values can stand only once. Inconclusive results and toxic doses are left out. Rule for the calls: active = survival T/C of 150% or more; inactive = T/C below 125% in these data.

Tested on: BDF1 mice, P388 leukemia ip, median survival T/C
Experiment: NCI In Vivo Anticancer Drug Screen. Data for tumor model P388 Leukemia (intraperitoneal) in B6D2F1 (BDF1) mice
Details: endpoint: median survival time, higher = longer survival
In short: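 Read-out is survival of treated animals expressed relative to the vehicle group, as a T/C ratio.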

[1] = dose: 200.0 mg/kg/injection, schedule: Q01DX009 (ip), vehicle: saline with Tween-80
[2] = dose: 400.0 mg/kg/injection, schedule: Q01DX009 (ip), vehicle: saline with Tween-80
[3] = dose: 25.0 mg/kg/injection, schedule: Q01DX009 (ip), vehicle: saline with Tween-80
[4] = dose: 50.0 mg/kg/injection, schedule: Q01DX009 (ip), vehicle: saline with Tween-80
[5] = dose: 100.0 mg/kg/injection, schedule: Q01DX009 (ip), vehicle: saline with Tween-80
[6] = dose: 25.0 mg/kg/injection, schedule: Q01DX009 (ip), vehicle: Klucel (hydroxypropylcellulose) (HPC)
[7] = dose: 100.0 mg/kg/injection, schedule: Q04DX003 (ip), vehicle: Klucel (hydroxypropylcellulose) (HPC)
[8] = dose: 200.0 mg/kg/injection, schedule: Q04DX003 (ip), vehicle: Klucel (hydroxypropylcellulose) (HPC)
[9] = dose: 25.0 mg/kg/injection, schedule: Q04DX003 (ip), vehicle: water
[10] = dose: 100.0 mg/kg/injection, schedule: Q04DX003 (ip), vehicle: saline with Tween-80
[11] = dose: 200.0 mg/kg/injection, schedule: Q04DX003 (ip), vehicle: saline with Tween-80
[12] = dose: 400.0 mg/kg/injection, schedule: Q04DX003 (ip), vehicle: saline with Tween-80
[13] = dose: 100.0 mg/kg/injection, schedule: Q04DX003 (ip), vehicle: saline
[14] = dose: 50.0 mg/kg/injection, schedule: Q01DX009 (ip), vehicle: Klucel (hydroxypropylcellulose) (HPC)
[15] = dose: 100.0 mg/kg/injection, schedule: Q01DX009 (ip), vehicle: Klucel (hydroxypropylcellulose) (HPC)
[16] = dose: 12.5 mg/kg/injection, schedule: Q01DX009 (ip), vehicle: saline with Tween-80

Measured: T/C

O=C1C(C2OC2c2ccccc2)CCCC1C1OC1c1ccccc1 (stereo not given)
inactive: dose: 100.0 mg/kg/injection, schedule: Q04DX003 (ip), vehicle: saline sonified 100 % of control | [1] 91 % of control | dose: 200.0 mg/kg/injection, schedule: Q04DX003 (ip), vehicle: saline sonified 95 % of control | [2] 87 % of control | dose: 400.0 mg/kg/injection, schedule: Q04DX003 (ip), vehicle: saline sonified 95 % of control

CCCCCCCCCCCCCCCCCOc1ccc(I)cc1
inactive: dose: 50.0 mg/kg/injection, schedule: Q01DX001 (ip), vehicle: saline with Tween-80 95 % of control | dose: 100.0 mg/kg/injection, schedule: Q01DX001 (ip), vehicle: saline with Tween-80 100 % of control | dose: 200.0 mg/kg/injection, schedule: Q01DX001 (ip), vehicle: saline with Tween-80 90 % of control

CNC1C(OC2C(OC3C(O)C(O)C(N=C(N)N)C(O)C3N=C(N)N)OC(C)C2(O)C=O)OC(CO)C(O)C1O (stereo not given)
inactive: dose: 100.0 mg/kg/injection, schedule: Q01DX009 (ip), vehicle: water 103 % of control | dose: 200.0 mg/kg/injection, schedule: Q01DX009 (ip), vehicle: water 112 % of control | dose: 400.0 mg/kg/injection, schedule: Q01DX009 (ip), vehicle: water 103 % of control

Oc1cccc2ccc(CC(O)(c3ccccc3)c3ccccc3)nc12
inactive: [3] 108 % of control | [4] 99 % of control | [5] 108 % of control

CSC1CCCC(=O)C1 (stereo not given)
inactive: dose: 12.5 mg/kg/injection, schedule: Q01DX009 (ip), vehicle: Klucel (hydroxypropylcellulose) (HPC) 100 % of control | [6] 105 % of control | [7] 100 % of control | [8] 95 % of control | dose: 400.0 mg/kg/injection, schedule: Q04DX003 (ip), vehicle: Klucel (hydroxypropylcellulose) (HPC) 90 % of control

CCCCCCC/C=N/N=C/CCCCCCC
inactive: dose: 100.0 mg/kg/injection, schedule: Q01DX009 (ip), vehicle: other 100 % of control | dose: 100.0 mg/kg/injection, schedule: Q04DX003 (ip), vehicle: other 109 % of control | dose: 178.0 mg/kg/injection, schedule: Q01DX009 (ip), vehicle: other 122 % of control | dose: 200.0 mg/kg/injection, schedule: Q04DX003 (ip), vehicle: other 109 % of control | dose: 400.0 mg/kg/injection, schedule: Q01DX009 (ip), vehicle: other 104 % of control

O=C(CI)Nc1ccc(O)c2ccccc12
inactive: dose: 0.78 mg/kg/injection, schedule: Q01DX009 (ip), vehicle: water 97 % of control | dose: 1.56 mg/kg/injection, schedule: Q01DX009 (ip), vehicle: water 106 % of control | dose: 3.12 mg/kg/injection, schedule: Q01DX009 (ip), vehicle: water 106 % of control | dose: 6.25 mg/kg/injection, schedule: Q01DX009 (ip), vehicle: water 108 % of control | dose: 6.25 mg/kg/injection, schedule: Q04DX003 (ip), vehicle: water 89 % of control | dose: 12.5 mg/kg/injection, schedule: Q01DX009 (ip), vehicle: water 123 % of control | dose: 12.5 mg/kg/injection, schedule: Q04DX003 (ip), vehicle: water 99 % of control | [9] 104 % of control

C(/C=C\C=C/Nc1ccccc1)=Nc1ccccc1
inactive: dose: 10.0 mg/kg/injection, schedule: Q01DX009 (ip), vehicle: saline with Tween-80 100 % of control | dose: 20.0 mg/kg/injection, schedule: Q01DX009 (ip), vehicle: saline with Tween-80 91 % of control | dose: 40.0 mg/kg/injection, schedule: Q01DX009 (ip), vehicle: saline with Tween-80 89 % of control

Cc1ccc(NC(=O)OCCSC(=O)COc2ccc(Cl)cc2Cl)cc1
inactive: [10] 100 % of control | [11] 100 % of control | [12] 104 % of control

CCOC(=O)C(C)Oc1ccc(Cl)cc1 (stereo not given)
inactive: [9] 106 % of control | dose: 50.0 mg/kg/injection, schedule: Q04DX003 (ip), vehicle: water 101 % of control | dose: 100.0 mg/kg/injection, schedule: Q04DX003 (ip), vehicle: water 113 % of control | dose: 200.0 mg/kg/injection, schedule: Q04DX003 (ip), vehicle: water 112 % of control | dose: 400.0 mg/kg/injection, schedule: Q04DX003 (ip), vehicle: water 106 % of control

Cc1ccc2c(c1)CCCN2C
inactive: dose: 25.0 mg/kg/injection, schedule: Q01DX009 (ip), vehicle: saline 114 % of control | dose: 50.0 mg/kg/injection, schedule: Q01DX009 (ip), vehicle: saline 114 % of control | dose: 50.0 mg/kg/injection, schedule: Q04DX003 (ip), vehicle: saline 104 % of control | [13] 104 % of control

C1CC[N-]CC1.C1CC[N-]CC1.C1CC[N-]CC1.[Cl][Cr]([Cl])[Cl]
inactive: [14] 90 % of control | [15] 100 % of control

CCCCCCCCCCCCCCCC[N+]1([O-])CCCC1
inactive: [16] 110 % of control | [3] 99 % of control | [4] 108 % of control

COC(=O)C(N)CSCSC (stereo not given)
inactive: [13] 90 % of control | dose: 200.0 mg/kg/injection, schedule: Q04DX003 (ip), vehicle: saline 100 % of control | dose: 400.0 mg/kg/injection, schedule: Q04DX003 (ip), vehicle: saline 90 % of control

O=C(Cc1ccc([N+](=O)[O-])cc1)c1ccc(O)cc1O
inactive: dose: 50.0 mg/kg/injection, schedule: Q04DX003 (ip), vehicle: Klucel (hydroxypropylcellulose) (HPC) 86 % of control | [7] 95 % of control | [8] 90 % of control

COc1ccc(NC(=S)Nc2ccccn2)cc1
inactive: [16] 100 % of control | [3] 100 % of control | [4] 104 % of control | dose: 100.0 mg/kg/injection, schedule: Q01DX001 (ip), vehicle: saline 103 % of control | [5] 100 % of control | dose: 200.0 mg/kg/injection, schedule: Q01DX001 (ip), vehicle: saline 111 % of control | [1] 96 % of control | dose: 400.0 mg/kg/injection, schedule: Q01DX001 (ip), vehicle: saline 107 % of control | [2] 104 % of control

C=C(C)c1ccc(C)c(C)c1
inactive: [5] 106 % of control | [2] 122 % of control

CCCCN(CCCC)CCC(=O)c1ccc(OC)c2ccccc12
inactive: [4] 86 % of control

O=C(Nc1ccc(Cl)c(Cl)c1)O/N=C/c1ccccn1
inactive: [10] 100 % of control | [11] 90 % of control | [12] 95 % of control

O=C(NS(=O)(=O)c1ccc(Cl)cc1)c1cccc2ccccc12
inactive: [6] 95 % of control | [14] 90 % of control | [15] 109 % of control

C[C@@H]1O[C@@H](O[C@H]2CC[C@]3(C=O)[C@H]4CC[C@]5(C)[C@@H](c6ccc(=O)oc6)CC[C@]5(O)[C@@H]4CC[C@]3(O)C2)[C@H](O)[C@H](O)[C@H]1O[C@@H]1O[C@H](CO)[C@@H](O)[C@H](O)[C@H]1O
inactive: dose: 0.6 mg/kg/injection, schedule: Q01DX010 (ip), vehicle: carboxymethylcellulose (CMC) 95 % of control | dose: 1.2 mg/kg/injection, schedule: Q01DX010 (ip), vehicle: carboxymethylcellulose (CMC) 104 % of control | dose: 2.5 mg/kg/injection, schedule: Q01DX010 (ip), vehicle: carboxymethylcellulose (CMC) 95 % of control and 120 % of control | dose: 5.0 mg/kg/injection, schedule: Q01DX010 (ip), vehicle: carboxymethylcellulose (CMC) 100 % of control
